The source of these data is patent publication US20250064789A1, “KETOAMIDE DERIVATIVES AND PHARMACEUTICAL USES THEREOF” (priority 2022, published 2025).

This assay concerns the target recombinant SARS-CoV-2 M^pro (Severe acute respiratory syndrome coronavirus 2 (2019-nCoV) (SARS-CoV-2), UniProt P0DTD1). As to the kind of experiment: Inhibition of SARS-CoV-2 M^pro enzyme activity (fluorescent substrate assay). The note with it: inhibition of SARS-CoV-2 M^pro enzyme activity, read-out: IC50. Format: biochemical.

Each structure is given as a SMILES string. Like-named read-outs stand apart in the source and are kept apart here. A value given as a limit tells only on which side of the number the result lay.

For `C[C@@H](OCc1ccccc1)C(=O)N[C@H](Cc1ccccc1)C(=O)C(=O)NCc1ccccn1` [Compound 1, (R)-3-((R)-2-(benzyloxy)propionamido)-2-oxo-4-phenyl-N-(pyridin-2-ylmethyl)butyramide], where the note is “values in nM”, the concentration for half-maximal inhibition (IC50) came to 14.6 ± 1.3 nM.

As to `C[C@@H](OCc1cc(F)cc(F)c1)C(=O)N[C@H](Cc1ccccc1)C(=O)C(=O)NCc1ccccn1` [Compound 2], the IC50 (values in nM) was 17.6 ± 0.4 nM.

`C[C@@H](OCc1c(F)cccc1F)C(=O)N[C@H](Cc1ccccc1)C(=O)C(=O)NCc1ccccn1` [Compound 3]: the IC50 (values in nM) is 411 ± 28.2 nM.

As to `C[C@@H](OCc1ccc(OC(F)(F)F)cc1)C(=O)N[C@H](Cc1ccccc1)C(=O)C(=O)NCc1ccccn1` [Compound 4], the IC50 (values in nM) is 20.4 ± 1.8 nM.

As to `C[C@@H](OCc1cccc(OC(F)(F)F)c1)C(=O)N[C@H](Cc1ccccc1)C(=O)C(=O)NCc1ccccn1` [Compound 5], the IC50 (values in nM) was determined as 15.4 ± 0.7 nM.

Consider `C[C@@H](OCc1ccccc1F)C(=O)N[C@H](Cc1ccccc1)C(=O)C(=O)NCc1ccccn1` [Compound 6], for which the IC50 (values in nM) stood at 48.3 ± 1.2 nM.

As for `C[C@@H](OCc1cccc(F)c1)C(=O)N[C@H](Cc1ccccc1)C(=O)C(=O)NCc1ccccn1` [Compound 7], the IC50 (values in nM) stood at 28.5 ± 0.9 nM.

Take `C[C@@H](OCc1ccc(F)cc1)C(=O)N[C@H](Cc1ccccc1)C(=O)C(=O)NCc1ccccn1` [Compound 9]: under “values in nM”, the IC50 was 12.1 ± 2.5 nM.

On to `C[C@H](OCc1ccccc1)C(=O)N[C@H](Cc1ccccc1)C(=O)C(=O)NCc1ccccn1` [Compound 10], for which the IC50 (values in nM) is 113 ± 32.1 nM.

`C[C@@H](OCc1ccc(Cl)c(Cl)c1)C(=O)N[C@H](Cc1ccccc1)C(=O)C(=O)NCc1ccccn1` [Compound 12]: under “values in nM”, the IC50 was 12.3 ± 0.8 nM.

`C[C@@H](OCc1ccc(Cl)cc1)C(=O)N[C@H](Cc1ccccc1)C(=O)C(=O)NCc1ccccn1` [Compound 13]: the IC50 (values in nM) was 14.3 ± 0.4 nM.

On to `Cc1ccc(CO[C@H](C)C(=O)N[C@H](Cc2ccccc2)C(=O)C(=O)NCc2ccccn2)cc1` [Compound 14], for which the IC50 (values in nM) is 19.3 ± 2.8 nM.

Regarding `C[C@@H](OCc1cc(F)cc(Cl)c1)C(=O)N[C@H](Cc1ccccc1)C(=O)C(=O)NCc1ccccn1` [Compound 15], the IC50 (values in nM) is 9.8 ± 0.1 nM.

Consider `COc1ccc(CO[C@H](C)C(=O)N[C@H](Cc2ccccc2)C(=O)C(=O)NCc2ccccn2)cc1F` [Compound 16], for which the IC50 (values in nM) came out at 18.9 ± 1.7 nM.

In the case of `CC(C)(OCc1ccc(OC(F)(F)F)cc1)C(=O)N[C@H](Cc1ccccc1)C(=O)C(=O)NCc1ccccn1` [Compound 17], the IC50 (values in nM) was determined as 19.8 ± 0.2 nM.

For `CC(C)(OCc1ccc(Cl)cc1)C(=O)N[C@H](Cc1ccccc1)C(=O)C(=O)NCc1ccccn1` [Compound 18], the IC50 (values in nM) stood at 13.7 ± 2 nM.

Regarding `CC(C)(OCc1cc(F)cc(Cl)c1)C(=O)N[C@H](Cc1ccccc1)C(=O)C(=O)NCc1ccccn1` [Compound 19], where the note is “values in nM”, the IC50 is 45.2 ± 1.2 nM.

For the compound `CC(C)(OCc1ccc(F)c(F)c1)C(=O)N[C@H](Cc1ccccc1)C(=O)C(=O)NCc1ccccn1` [Compound 20], the IC50 (values in nM) amounted to 15.2 ± 0.2 nM.

On to `COc1ccc(COC(C)(C)C(=O)N[C@H](Cc2ccccc2)C(=O)C(=O)NCc2ccccn2)cc1F` [Compound 21], for which the IC50 (values in nM) was determined as 26.9 ± 3.9 nM.

Turning to `CC(C)(OCc1ccc(F)cc1)C(=O)N[C@H](Cc1ccccc1)C(=O)C(=O)NCc1ccccn1` [Compound 22], the IC50 (values in nM) amounted to 18.6 ± 1.7 nM.

As to `O=C(NCc1ccccn1)C(=O)[C@@H](Cc1ccccc1)NC(=O)C1(OCc2ccc(Cl)cc2)CC1` [Compound 25], under “values in nM”, the IC50 came to 24.9 ± 0.3 nM.

With `CC(C)[C@@H](OCc1ccc(F)cc1)C(=O)N[C@H](Cc1ccccc1)C(=O)C(=O)NCc1ccccn1` [Compound 26], the IC50 (values in nM) was found to be 13.9 ± 0.2 nM.

On to `C[C@@H](OCc1ccccc1)C(=O)N[C@H](Cc1ccccc1)C(=O)C(=O)NCc1cnccn1` [Compound 27], for which the IC50 (values in nM) was determined as 885.8 ± 0.2 nM.

As to `Cc1cccc(CNC(=O)C(=O)[C@@H](Cc2ccccc2)NC(=O)[C@@H](C)OCc2ccccc2)n1` [Compound 28], the IC50 (values given in μM) is > 5000 nM.

Regarding `C[C@@H](OCc1ccccc1)C(=O)N[C@H](Cc1ccccc1)C(=O)C(=O)NCc1ncccn1` [Compound 29], the 50% inhibitory concentration (IC50) (values given in μM) was > 5000 nM.

Turning to `C[C@@H](OCc1ccccc1)C(=O)N[C@H](Cc1ccccc1)C(=O)C(=O)NCc1ccncn1` [Compound 30], the IC50 (values given in μM) was > 5000 nM.

As for `C[C@@H](OCc1ccccc1)C(=O)N[C@H](Cc1ccccc1)C(=O)C(=O)N[C@H](C)c1ccccn1` [Compound 31], the IC50 (values given in μM) was > 5000 nM.

Turning to `C[C@@H](OCc1ccccc1)C(=O)N[C@H](Cc1ccccc1)C(=O)C(=O)NC(c1ccccc1)c1ccccn1` (stereo partly shown) [Compound 32], where the note is “values given in μM”, the IC50 is > 5000 nM.

For the compound `C[C@@H](OCc1ccccc1)C(=O)N[C@H](Cc1ccccc1)C(=O)C(=O)NCc1ncccc1Cl` [Compound 34], under “values given in μM”, the IC50 was > 5000 nM.

As for `C[C@@H](OCc1ccccc1)C(=O)N[C@H](Cc1ccccc1)C(=O)C(=O)NCc1ccc(Cl)cn1` [Compound 36], under “values in nM”, the IC50 is 30.9 ± 0.2 nM.

As for `C[C@@H](OCc1ccccc1)C(=O)N[C@H](Cc1ccccc1)C(=O)C(=O)NCc1ccc(C(F)(F)F)cn1` [Compound 38], the IC50 (values in nM) came to 796.3 ± 1.1 nM.

As for `COc1cccnc1CNC(=O)C(=O)[C@@H](Cc1ccccc1)NC(=O)[C@@H](C)OCc1ccccc1` [Compound 39], the IC50 (values given in μM) is > 5000 nM.

Take `C[C@@H](OCc1ccccc1)C(=O)N[C@H](Cc1ccccc1)C(=O)C(=O)N(C)Cc1ccccn1` [Compound 41]: the IC50 (values given in μM) is > 2500 nM.

On to `C[C@@H](OCc1ccc(F)cc1)C(=O)N[C@H](Cc1ccccc1)C(=O)C(=O)NCc1ccc(Cl)cn1` [Compound 42], for which the IC50 (values in nM) was found to be 17.6 ± 0.4 nM.

Consider `CC(C)(OCc1ccc(Cl)cc1)C(=O)N[C@H](Cc1ccccc1)C(=O)C(=O)NCc1ccc(Cl)cn1` [Compound 43], for which the IC50 (values in nM) was 20.2 ± 2.5 nM.

As for `C[C@@H](OCc1ccc(Cl)c(Cl)c1)C(=O)N[C@H](Cc1ccccc1)C(=O)C(=O)NCc1ccc(Cl)cn1` [Compound 44], the IC50 (values in nM) stood at 21.7 ± 2.1 nM.

On to `C[C@@H](OCc1ccc(Cl)cc1)C(=O)N[C@H](Cc1ccccc1)C(=O)C(=O)NCc1ccc(Cl)cn1` [Compound 45], for which the IC50 (values in nM) is 14.7 ± 1 nM.

In the case of `C[C@@H](OCc1cc(F)cc(Cl)c1)C(=O)N[C@H](Cc1ccccc1)C(=O)C(=O)NCc1ccc(Cl)cn1` [Compound 46], for the setting “values in nM”, the IC50 came to 13.3 ± 0.1 nM.

On to `C[C@@H](OCc1cccc(OC(F)(F)F)c1)C(=O)N[C@H](Cc1ccccc1)C(=O)C(=O)NCc1ccc(Cl)cn1` [Compound 47], for which, for the setting “values in nM”, the IC50 was determined as 14.1 ± 0.1 nM.

For the compound `CC[C@@H](OCc1ccc(F)cc1)C(=O)N[C@H](Cc1ccccc1)C(=O)C(=O)NCc1ccc(Cl)cn1` [Compound 48], the IC50 (values in nM) is 30.9 ± 0.3 nM.

For the compound `CC(C)[C@@H](OCc1ccc(F)cc1)C(=O)N[C@H](Cc1ccccc1)C(=O)C(=O)NCc1ccc(Cl)cn1` [Compound 49], the IC50 (values in nM) came to 14.7 ± 0.4 nM.

With `C[C@@H](OCc1ccc(F)cc1)C(=O)N[C@H](Cc1ccc2ccccc2c1)C(=O)C(=O)NCc1ccc(Cl)cn1` [Compound 53], the IC50 (values in nM) was 187.8 ± 0.7 nM.

As to `O=C(COc1ccc(F)cc1)N[C@H](Cc1ccccc1)C(=O)C(=O)NCc1ccccn1` [Compound 54], the IC50 (values in nM) amounted to 298.4 ± 2.9 nM.

Regarding `COc1ccc(OC(C)C(=O)N[C@H](Cc2ccccc2)C(=O)C(=O)NCc2ccccn2)cc1` (stereo partly shown) [Compound 57], for the setting “values in nM”, the IC50 turned out to be 351 ± 6.8 nM.

For the compound `CN(OCc1ccccc1)C(=O)N[C@H](Cc1ccccc1)C(=O)C(=O)NCc1ccccn1` [Compound 58, (R)-3-(3-(benzyloxy)-3-methylureido)-2-oxo-4-phenyl-N-(pyridin-2-ylmethyl)butyramide], the IC50 (values in nM) was 100.9 ± 0.1 nM.

Consider `C[C@@H](NC(=O)c1ccc(F)cc1)C(=O)N[C@H](Cc1ccccc1)C(=O)C(=O)NCc1ccc(Cl)cn1` [Compound 59], for which the IC50 (values in nM) is 26.6 ± 1.8 nM.

On to `C[C@@H](NC(=O)c1cc(F)cc(Cl)c1)C(=O)N[C@H](Cc1ccccc1)C(=O)C(=O)NCc1ccc(Cl)cn1` [Compound 60], for which the IC50 (values in nM) stood at 24.9 ± 0.1 nM.

As for `C[C@@H](NC(=O)COc1ccccc1)C(=O)N[C@H](Cc1ccccc1)C(=O)C(=O)NCc1ccccn1` [Compound 61], the IC50 (values in nM) was determined as 11.8 ± 0.1 nM.

For `C[C@@H](NC(=O)Cc1cc2ccccc2o1)C(=O)N[C@H](Cc1ccccc1)C(=O)C(=O)NCc1ccccn1` [Compound 62], the IC50 (values in nM) was found to be 27.8 ± 0.9 nM.

For the compound `COc1ccc(CCCC(=O)N[C@H](C)C(=O)N[C@H](Cc2ccccc2)C(=O)C(=O)NCc2ccccn2)cc1` [Compound 63], the IC50 (values in nM) is 19.6 ± 0.3 nM.

With `C[C@@H](NC(=O)Cc1cc(C(C)(C)C)nn1-c1ccccc1)C(=O)N[C@H](Cc1ccccc1)C(=O)C(=O)NCc1ccccn1` [Compound 64], the IC50 (values in nM) stood at 16.1 ± 0.2 nM.

Consider `C[C@@H](NC(=O)C(C#N)Cc1ccccc1)C(=O)N[C@H](Cc1ccccc1)C(=O)C(=O)NCc1ccccn1` (stereo partly shown) [Compound 65], for which, for the setting “values in nM”, the IC50 turned out to be 21.2 ± 0.8 nM.

On to `C[C@@H](NC(=O)CCc1ccccc1)C(=O)N[C@H](Cc1ccccc1)C(=O)C(=O)NCc1ccccn1` [Compound 66], for which the IC50 (values in nM) came to 11.7 ± 0.1 nM.

For `COc1ccc(CCC(=O)N[C@H](C)C(=O)N[C@H](Cc2ccccc2)C(=O)C(=O)NCc2ccccn2)cc1` [Compound 67], the IC50 (values in nM) is 17.3 ± 1.6 nM.

In the case of `CC(C)c1ccc(OCC(=O)N[C@H](C)C(=O)N[C@H](Cc2ccccc2)C(=O)C(=O)NCc2ccccn2)cc1` [Compound 68], the half-maximal inhibitory concentration (IC50) (values in nM) worked out at 12.4 ± 1.1 nM.

`C[C@@H](NC(=O)COc1ccc(OC(F)(F)F)cc1)C(=O)N[C@H](Cc1ccccc1)C(=O)C(=O)NCc1ccccn1` [Compound 69]: the IC50 (values in nM) came to 17.7 ± 1.5 nM.

For `C[C@@H](NC(=O)COc1ccccc1F)C(=O)N[C@H](Cc1ccccc1)C(=O)C(=O)NCc1ccccn1` [Compound 70], the IC50 (values in nM) amounted to 22.9 ± 0.3 nM.

For the compound `C[C@@H](NC(=O)COc1ccc(Cl)c(Cl)c1)C(=O)N[C@H](Cc1ccccc1)C(=O)C(=O)NCc1ccccn1` [Compound 71], the IC50 (values in nM) came out at 10.9 ± 0.5 nM.

For `C[C@@H](NC(=O)c1cc2ccccc2o1)C(=O)N[C@H](Cc1ccccc1)C(=O)C(=O)NCc1ccccn1` [Compound 72], under “values in nM”, the IC50 was determined as 27.7 ± 4.1 nM.

Take `C[C@@H](NC(=O)C(C)(C)c1ccccc1)C(=O)N[C@H](Cc1ccccc1)C(=O)C(=O)NCc1ccccn1` [Compound 73]: the IC50 (values in nM) is 25.8 ± 0.5 nM.

As to `C[C@@H](NC(=O)C1(c2ccccc2)CC1)C(=O)N[C@H](Cc1ccccc1)C(=O)C(=O)NCc1ccccn1` [Compound 74], the IC50 (values in nM) turned out to be 23.3 ± 0.4 nM.
